In PMC7690448, “Generation of a hTERT-Immortalized Human Sertoli Cell Model to Study Transporter Dynamics at the Blood-Testis Barrier” (Pharmaceutics, 2020):

Biological target: T1, ENT1 (Homo sapiens, UniProt Q99808)
T1 construct: gene SLC29A1
T1 sequence (Q99808 2-456): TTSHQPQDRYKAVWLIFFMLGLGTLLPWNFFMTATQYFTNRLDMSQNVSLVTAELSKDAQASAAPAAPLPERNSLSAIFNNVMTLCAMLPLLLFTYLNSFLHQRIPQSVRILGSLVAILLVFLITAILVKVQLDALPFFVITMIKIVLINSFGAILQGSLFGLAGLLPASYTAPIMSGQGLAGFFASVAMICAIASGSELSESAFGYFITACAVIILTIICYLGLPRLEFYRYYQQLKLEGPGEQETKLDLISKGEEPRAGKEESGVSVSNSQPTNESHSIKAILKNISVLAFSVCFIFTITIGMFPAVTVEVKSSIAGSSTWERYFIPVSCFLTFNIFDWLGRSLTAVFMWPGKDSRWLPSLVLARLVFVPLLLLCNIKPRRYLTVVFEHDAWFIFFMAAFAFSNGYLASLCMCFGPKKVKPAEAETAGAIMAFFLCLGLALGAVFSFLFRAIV
Assay: NBMPR-sensitive [3H] uridine uptake in primary human Sertoli cells and hT-SerCs (endogenous ENT1)
Type: cell-based

O=c1ccn([C@@H]2O[C@H](CO)[C@@H](O)[C@H]2O)c(=O)[nH]1 [uridine]
NBMPR-sensitive [3H] uridine uptake in primary human Sertoli cells and hT-SerCs: These data suggest that uridine uptake into both cells is primarily mediated by ENT1 with minimal contribution by ENT2.
